For this test, the system named is HCT116. Description: In vitro cytotoxicity measured by the cell colony formation assay. It is filed as cell-based. The following applies: HCT116 cells, 72 h drug incubation, colonies counted after 7 days; ID50 = drug concentration producing 50% inhibition of colony formation; read-out: IN VITRO ID 50 (nm) HCT116.
As to `C/C=C/C(=O)N[C@@H](c1cccs1)[C@@H](O)C(=O)O[C@H]1C[C@@]2(O)[C@@H](OC(=O)c3ccccc3)C3[C@](C)(C(=O)[C@H](OC(=O)C4CC4)C(=C1C)C2(C)C)[C@@H](O)C[C@H]1OC[C@@]31OC(C)=O` (stereo partly shown) [Compound 3513], the IC50 was below 1 nM. Then `CCC(=O)O[C@H]1C(=O)[C@@]2(C)C([C@H](OC(=O)c3ccccc3)[C@]3(O)C[C@H](OC(=O)[C@H](O)[C@@H](NC(=O)c4ccccc4)C4CC4)C(C)=C1C3(C)C)[C@]1(OC(C)=O)CO[C@@H]1C[C@@H]2O` (stereo partly shown) [Compound 0706], with below 1 nM. As to `CC(=O)OC12COC1CC(O)C1(C)C(=O)C(OC(=O)c3cccs3)C3=C(C)C(OC(=O)C(O)C(NC(=O)OC(C)(C)C)c4ccc([N+](=O)[O-])cc4)CC(O)(C(OC(=O)c4ccccc4)C21)C3(C)C` (stereo not shown) [Compound 1911], the IC50 was below 10 nM.

As for `CCC(=O)O[C@H]1C(=O)[C@@]2(C)C([C@H](OC(=O)c3ccccc3)[C@]3(O)C[C@H](OC(=O)[C@H](O)[C@@H](NC(=O)OCC(C)C)C4CC4)C(C)=C1C3(C)C)[C@]1(OC(C)=O)CO[C@@H]1C[C@@H]2O` (stereo partly shown) [Compound 4799], the IC50 is below 1 nM. Then `CC(=O)OC12COC1CC(O)C1(C)C(=O)C(OC(=O)c3ccco3)C3=C(C)C(OC(=O)C(O)C(NC(=O)OC(C)(C)C)c4ccccc4)CC(O)(C(OC(=O)c4ccccc4)C21)C3(C)C` (stereo not shown) [Compound 2212], with below 10 nM. In the case of `CC(=O)O[C@@]12CO[C@@H]1C[C@H](O)[C@@]1(C)C(=O)[C@H](OC(=O)C3CC3)C3=C(C)[C@@H](OC(=O)[C@H](O)[C@@H](NC(=O)c4cccs4)c4cccs4)C[C@@](O)([C@@H](OC(=O)c4ccccc4)C12)C3(C)C` (stereo partly shown) [Compound 3453], the IC50 was below 1 nM.

In the case of `CCC(=O)O[C@H]1C(=O)[C@@]2(C)C([C@H](OC(=O)c3ccccc3)[C@]3(O)C[C@H](OC(=O)[C@H](O)[C@@H](NC(=O)c4cccs4)c4cccs4)C(C)=C1C3(C)C)[C@]1(OC(C)=O)CO[C@@H]1C[C@@H]2O` (stereo partly shown) [Compound 3425], the IC50 was below 1 nM. Then `CCC(=O)O[C@H]1C(=O)[C@@]2(C)C([C@H](OC(=O)c3ccccc3)[C@]3(O)C[C@H](OC(=O)[C@H](O)[C@H](C=C(C)C)NC(=O)OCC(C)C)C(C)=C1C3(C)C)[C@]1(OC(C)=O)CO[C@@H]1C[C@@H]2O` (stereo partly shown) [Compound 5065], with below 10 nM. Then `CCC(=O)O[C@H]1C(=O)[C@@]2(C)C([C@H](OC(=O)c3ccccc3)[C@]3(O)C[C@H](OC(=O)[C@H](O)[C@@H](NC(=O)C=C(C)C)c4cccs4)C(C)=C1C3(C)C)[C@]1(OC(C)=O)CO[C@@H]1C[C@@H]2O` (stereo partly shown) [Compound 4335], with below 1 nM. Take `C/C=C/C(=O)N[C@@H](c1cccs1)[C@@H](O)C(=O)O[C@H]1C[C@@]2(O)[C@@H](OC(=O)c3ccccc3)C3[C@](C)(C(=O)[C@H](OC(=O)CC)C(=C1C)C2(C)C)[C@@H](O)C[C@H]1OC[C@@]31OC(C)=O` (stereo partly shown) [Compound 3494]: the IC50 was below 1 nM. Regarding `C/C=C/C(=O)O[C@H]1C(=O)[C@@]2(C)C([C@H](OC(=O)c3ccccc3)[C@]3(O)C[C@H](OC(=O)[C@H](O)[C@@H](NC(=O)OC(C)(C)C)c4ccco4)C(C)=C1C3(C)C)[C@]1(OC(C)=O)CO[C@@H]1C[C@@H]2O` (stereo partly shown) [Compound 2379], the IC50 is below 1 nM. Then `CC(=O)O[C@@]12CO[C@@H]1C[C@H](O)[C@@]1(C)C(=O)[C@H](OC(=O)C3CC3)C3=C(C)[C@@H](OC(=O)[C@H](O)[C@@H](NC(=O)OC(C)(C)C)c4ccncc4)C[C@@](O)([C@@H](OC(=O)c4ccccc4)C12)C3(C)C` (stereo partly shown) [Compound 2813], with below 1 nM.

`CCC(=O)O[C@H]1C(=O)[C@@]2(C)C([C@H](OC(=O)c3ccccc3)[C@]3(O)C[C@H](OC(=O)[C@H](O)[C@@H](NC(=O)c4ccccc4)c4ccc([N+](=O)[O-])cc4)C(C)=C1C3(C)C)[C@]1(OC(C)=O)CO[C@@H]1C[C@@H]2O` (stereo partly shown) [Compound 0732]: the IC50 was below 10 nM. For the compound `CCCC(=O)O[C@H]1C(=O)[C@@]2(C)C([C@H](OC(=O)c3ccccc3)[C@]3(O)C[C@H](OC(=O)[C@H](O)[C@@H](NC(=O)OC(C)(C)C)c4ccco4)C(C)=C1C3(C)C)[C@]1(OC(C)=O)CO[C@@H]1C[C@@H]2O` (stereo partly shown) [Compound 0983], the IC50 is below 1 nM. Then `C/C=C/C(=O)N[C@@H](c1ccco1)[C@@H](O)C(=O)O[C@H]1C[C@@]2(O)[C@@H](OC(=O)c3ccccc3)C3[C@](C)(C(=O)[C@H](OC(=O)CC)C(=C1C)C2(C)C)[C@@H](O)C[C@H]1OC[C@@]31OC(C)=O` (stereo partly shown) [Compound 3982], with below 1 nM; and `CCCC(=O)N[C@@H](c1ccco1)[C@@H](O)C(=O)O[C@H]1C[C@@]2(O)[C@@H](OC(=O)c3ccccc3)C3[C@](C)(C(=O)[C@H](OC(=O)CC)C(=C1C)C2(C)C)[C@@H](O)C[C@H]1OC[C@@]31OC(C)=O` (stereo partly shown) [Compound 3219], with below 1 nM; and `CC(=O)O[C@@]12CO[C@@H]1C[C@H](O)[C@@]1(C)C(=O)[C@H](OC(=O)C3CC3)C3=C(C)[C@@H](OC(=O)[C@H](O)[C@H](C=C(C)C)NC(=O)OCC(C)C)C[C@@](O)([C@@H](OC(=O)c4ccccc4)C12)C3(C)C` (stereo partly shown) [Compound 4720], with below 10 nM. In the case of `CC(=O)O[C@@]12CO[C@@H]1C[C@H](O)[C@@]1(C)C(=O)[C@H](OC(=O)C=C(C)C)C3=C(C)[C@@H](OC(=O)[C@H](O)[C@@H](NC(=O)OC(C)(C)C)c4cccs4)C[C@@](O)([C@@H](OC(=O)c4ccccc4)C12)C3(C)C` (stereo partly shown) [Compound 2503], the IC50 was below 1 nM.

On to `CCC(=O)O[C@H]1C(=O)[C@@]2(C)C([C@H](OC(=O)c3ccccc3)[C@]3(O)C[C@H](OC(=O)[C@H](O)[C@@H](NC(=O)c4ccccc4)c4ccccn4)C(C)=C1C3(C)C)[C@]1(OC(C)=O)CO[C@@H]1C[C@@H]2O` (stereo partly shown) [Compound 0634], for which the IC50 was below 10 nM. Then `CCCC(=O)OC1C(=O)C2(C)C(O)CC3OCC3(OC(C)=O)C2C(OC(=O)c2ccccc2)C2(O)CC(OC(=O)C(O)C(NC(=O)OC(C)(C)C)C(C)C)C(C)=C1C2(C)C` (stereo not shown) [Compound 1031], with below 10 nM; and `C/C=C/C(=O)O[C@H]1C(=O)[C@@]2(C)C([C@H](OC(=O)c3ccccc3)[C@]3(O)C[C@H](OC(=O)[C@H](O)[C@@H](NC(=O)OC(C)(C)C)C(C)C)C(C)=C1C3(C)C)[C@]1(OC(C)=O)CO[C@@H]1C[C@@H]2O` (stereo partly shown) [Compound 2413], with below 10 nM; and `CC(=O)O[C@@]12CO[C@@H]1C[C@H](O)[C@@]1(C)C(=O)[C@H](OC(=O)C(C)C)C3=C(C)[C@@H](OC(=O)[C@H](O)[C@@H](NC(=O)OC(C)(C)C)c4cccnc4)C[C@@](O)([C@@H](OC(=O)c4ccccc4)C12)C3(C)C` (stereo partly shown) [Compound 2242], with below 10 nM. Then `CCOC(=O)N[C@@H](c1ccco1)[C@@H](O)C(=O)O[C@H]1C[C@@]2(O)[C@@H](OC(=O)c3ccccc3)C3[C@](C)(C(=O)[C@H](OC(=O)C4CC4)C(=C1C)C2(C)C)[C@@H](O)C[C@H]1OC[C@@]31OC(C)=O` (stereo partly shown) [Compound 3677], with below 1 nM. Then `CC(=O)O[C@@]12CO[C@@H]1C[C@H](O)[C@@]1(C)C(=O)[C@H](OC(=O)C=C(C)C)C3=C(C)[C@@H](OC(=O)[C@H](O)[C@@H](NC(=O)OC(C)(C)C)c4ccccc4)C[C@@](O)([C@@H](OC(=O)c4ccccc4)C12)C3(C)C` (stereo partly shown) [Compound 2520], with below 10 nM; and `CC(=O)O[C@@]12CO[C@@H]1C[C@H](O)[C@@]1(C)C(=O)[C@H](OC(=O)C3CC3)C3=C(C)[C@@H](OC(=O)[C@H](O)[C@@H](NC(=O)OC(C)(C)C)c4ccsc4)C[C@@](O)([C@@H](OC(=O)c4ccccc4)C12)C3(C)C` (stereo partly shown) [Compound 2794], with below 1 nM; and `CC(=O)O[C@@]12CO[C@@H]1C[C@H](O)[C@@]1(C)C(=O)[C@H](OC(=O)C3CC3)C3=C(C)[C@@H](OC(=O)[C@H](O)[C@@H](NC(=O)c4cccnc4)c4cccs4)C[C@@](O)([C@@H](OC(=O)c4ccccc4)C12)C3(C)C` (stereo partly shown) [Compound 4112], with below 10 nM. On to `CCCC(=O)OC1C(=O)C2(C)C(O)CC3OCC3(OC(C)=O)C2C(OC(=O)c2ccccc2)C2(O)CC(OC(=O)C(O)C(NC(=O)OC(C)(C)C)C3CC3)C(C)=C1C2(C)C` (stereo not shown) [Compound 1020], for which the IC50 is below 1 nM. In the case of `CCCC(=O)N[C@@H](c1ccco1)[C@@H](O)C(=O)O[C@H]1C[C@@]2(O)[C@@H](OC(=O)c3ccccc3)C3[C@](C)(C(=O)[C@H](OC(=O)C4CC4)C(=C1C)C2(C)C)[C@@H](O)C[C@H]1OC[C@@]31OC(C)=O` (stereo partly shown) [Compound 4062], the IC50 is below 1 nM.

With `CCC(=O)O[C@H]1C(=O)[C@@]2(C)C([C@H](OC(=O)c3ccccc3)[C@]3(O)C[C@H](OC(=O)[C@H](O)[C@@H](NC(=O)c4ccncc4)c4cccs4)C(C)=C1C3(C)C)[C@]1(OC(C)=O)CO[C@@H]1C[C@@H]2O` (stereo partly shown) [Compound 4207], the IC50 is below 10 nM.

`C/C=C/C(=O)O[C@H]1C(=O)[C@@]2(C)C([C@H](OC(=O)c3ccccc3)[C@]3(O)C[C@H](OC(=O)[C@H](O)[C@@H](NC(=O)OC(C)(C)C)C4CCC4)C(C)=C1C3(C)C)[C@]1(OC(C)=O)CO[C@@H]1C[C@@H]2O` (stereo partly shown) [Compound 2424]: the IC50 is below 10 nM. Then `C/C=C/C(=O)N[C@@H](c1ccoc1)[C@@H](O)C(=O)O[C@H]1C[C@@]2(O)[C@@H](OC(=O)c3ccccc3)C3[C@](C)(C(=O)[C@H](OC(=O)CCC)C(=C1C)C2(C)C)[C@@H](O)C[C@H]1OC[C@@]31OC(C)=O` (stereo partly shown) [Compound 4919], with below 1 nM; and `CC(=O)OC12COC1CC(O)C1(C)C(=O)C(OC(=O)c3ccco3)C3=C(C)C(OC(=O)C(O)C(NC(=O)OC(C)(C)C)c4ccsc4)CC(O)(C(OC(=O)c4ccccc4)C21)C3(C)C` (stereo not shown) [Compound 2173], with below 1 nM. Then `CCCC(=O)O[C@H]1C(=O)[C@@]2(C)C([C@H](OC(=O)c3ccccc3)[C@]3(O)C[C@H](OC(=O)[C@H](O)[C@@H](NC(=O)OC(C)(C)C)c4cccs4)C(C)=C1C3(C)C)[C@]1(OC(C)=O)CO[C@@H]1C[C@@H]2O` (stereo partly shown) [Compound 1003], with below 1 nM; and `CC(=O)OC12COC1CC(O)C1(C)C(=O)C(OC(=O)c3ccco3)C3=C(C)C(OC(=O)C(O)C(NC(=O)OC(C)(C)C)c4ccc([N+](=O)[O-])cc4)CC(O)(C(OC(=O)c4ccccc4)C21)C3(C)C` (stereo not shown) [Compound 2202], with below 1 nM.

The record behind these values is patent US7524869B2, “Taxanes having a C10 ester substituent” (Florida State University Research Foundation, Inc., priority 2000, dated 2009).
